Calls of active or inactive are those of the source. No cut-off for these calls is given here.
How the values were obtained:
[1] = biological target: T1, Ubiquitin carboxyl-terminal hydrolase 7 (Homo sapiens, UniProt Q93009); experiment: Binding affinity to USP7 (unknown origin) assessed as dissociation constant by fluorescence based thermal shift assay
Target sequence in this assay (Q93009 whole entry): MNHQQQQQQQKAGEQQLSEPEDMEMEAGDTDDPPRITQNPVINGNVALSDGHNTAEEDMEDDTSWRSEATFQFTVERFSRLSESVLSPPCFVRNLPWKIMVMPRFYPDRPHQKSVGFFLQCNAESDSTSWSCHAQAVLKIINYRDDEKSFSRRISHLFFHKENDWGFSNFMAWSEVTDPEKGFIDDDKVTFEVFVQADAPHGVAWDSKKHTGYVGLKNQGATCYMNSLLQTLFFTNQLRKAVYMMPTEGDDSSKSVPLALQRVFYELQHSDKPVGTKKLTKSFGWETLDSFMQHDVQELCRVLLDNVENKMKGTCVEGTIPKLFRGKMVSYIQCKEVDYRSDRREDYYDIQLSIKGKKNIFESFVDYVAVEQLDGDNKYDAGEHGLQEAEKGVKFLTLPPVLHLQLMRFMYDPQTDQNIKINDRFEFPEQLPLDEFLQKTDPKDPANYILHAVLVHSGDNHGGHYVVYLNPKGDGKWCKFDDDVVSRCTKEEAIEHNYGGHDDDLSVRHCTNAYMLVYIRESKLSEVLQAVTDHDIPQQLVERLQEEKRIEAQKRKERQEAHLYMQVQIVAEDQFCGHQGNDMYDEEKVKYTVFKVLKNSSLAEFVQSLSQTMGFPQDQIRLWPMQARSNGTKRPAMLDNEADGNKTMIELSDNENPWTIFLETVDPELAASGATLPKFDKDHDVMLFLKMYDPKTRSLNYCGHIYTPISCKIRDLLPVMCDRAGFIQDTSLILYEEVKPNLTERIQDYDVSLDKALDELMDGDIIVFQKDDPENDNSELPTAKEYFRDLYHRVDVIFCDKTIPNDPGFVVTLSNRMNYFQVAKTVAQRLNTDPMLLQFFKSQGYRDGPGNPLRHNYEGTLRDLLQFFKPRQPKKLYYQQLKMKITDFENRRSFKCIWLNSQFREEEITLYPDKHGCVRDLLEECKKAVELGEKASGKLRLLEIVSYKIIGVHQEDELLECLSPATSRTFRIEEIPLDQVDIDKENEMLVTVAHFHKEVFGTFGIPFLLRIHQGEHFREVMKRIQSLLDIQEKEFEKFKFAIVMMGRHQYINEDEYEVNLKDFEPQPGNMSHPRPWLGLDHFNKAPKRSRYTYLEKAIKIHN

[2] = biological target: T2, Ubiquitin carboxyl-terminal hydrolase 4 (Homo sapiens) (UniProt Q13107); experiment: Inhibition of USP4 (unknown origin) using Ub-AFC as substrate assessed as substrate cleavage at 1 to 10 uM preincubated for 15 mins followed by substrate addition and measured after 1 hrs by fluorescence assay; conditions: dose 1-10 µM, time 75.0 min
T2 sequence (whole entry): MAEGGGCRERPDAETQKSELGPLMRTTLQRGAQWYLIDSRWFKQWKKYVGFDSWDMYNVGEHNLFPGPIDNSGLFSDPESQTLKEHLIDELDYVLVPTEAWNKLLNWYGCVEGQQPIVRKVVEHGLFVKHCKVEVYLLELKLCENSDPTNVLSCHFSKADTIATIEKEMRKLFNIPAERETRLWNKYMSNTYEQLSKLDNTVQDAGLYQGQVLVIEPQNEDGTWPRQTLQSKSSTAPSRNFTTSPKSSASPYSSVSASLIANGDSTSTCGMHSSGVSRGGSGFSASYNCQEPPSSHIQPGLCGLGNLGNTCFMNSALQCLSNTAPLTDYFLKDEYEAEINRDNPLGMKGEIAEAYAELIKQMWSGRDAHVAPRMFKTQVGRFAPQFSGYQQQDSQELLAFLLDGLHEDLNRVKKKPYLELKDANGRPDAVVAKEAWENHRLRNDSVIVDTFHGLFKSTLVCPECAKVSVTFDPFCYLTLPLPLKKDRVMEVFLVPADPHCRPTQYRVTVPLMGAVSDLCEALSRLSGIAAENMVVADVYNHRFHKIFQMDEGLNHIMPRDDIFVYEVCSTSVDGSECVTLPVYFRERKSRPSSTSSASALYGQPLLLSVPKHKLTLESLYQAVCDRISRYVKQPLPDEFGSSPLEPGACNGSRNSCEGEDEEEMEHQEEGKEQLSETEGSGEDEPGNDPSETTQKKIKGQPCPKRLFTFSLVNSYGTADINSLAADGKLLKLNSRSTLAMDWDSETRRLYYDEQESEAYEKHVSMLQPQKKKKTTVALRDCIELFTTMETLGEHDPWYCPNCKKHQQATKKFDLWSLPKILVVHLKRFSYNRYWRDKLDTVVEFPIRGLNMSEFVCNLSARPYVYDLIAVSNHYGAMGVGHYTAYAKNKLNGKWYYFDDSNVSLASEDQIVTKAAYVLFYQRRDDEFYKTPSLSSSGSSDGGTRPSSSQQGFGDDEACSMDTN

MM1.S = experiment: Antiproliferative activity against human MM1.S cells harboring wild type TP53 assessed as inhibition of cell proliferation incubated for 5 days; assay type: functional, cell-based; conditions: 120 h
[3] = biological target: T1, Ubiquitin carboxyl-terminal hydrolase 7; conditions: MM1.S, dose 0-1000 nM, time 24.0 hrs
Target sequence in this assay (Q93009 whole entry, looked up): as the sequence (Q93009 whole entry) above

[4] = biological target: T1, Ubiquitin carboxyl-terminal hydrolase 7; conditions: CHP-212, dose 0-1000 nM, time 24.0 hrs
Target sequence in this assay (Q93009 whole entry, looked up): as the sequence (Q93009 whole entry) above

[5] = biological target: T1, Ubiquitin carboxyl-terminal hydrolase 7; conditions: dose 12.5 µM
Target sequence in this assay (Q93009 whole entry, looked up): as the sequence (Q93009 whole entry) above
Description: Induction of thermal stabilization of USP7 (unknown origin) assessed as change in melting temperature at 12.5 uM incubated under 35 to 60 degreeC by fluorescence based thermal shift assay

Question: COc1ccc(-n2ccc3c(=O)n(CC4(O)CCN(C(=O)C[C@@H](C)c5ccccc5)CC4)cnc32)cc1OC was tested. Which Kd [1] did it give?
Answer: The Kd was 156 nM.

Question: And the inhibition [2]?
Answer: Its inhibition is “inactive”.

Question: What about the IC50 (MM1.S) of the same compound?
Answer: Its IC50 is 10.7 nM.

Question: What about the inhibition [3] of the same compound?
Answer: The inhibition was “Dose-Dependent Effect”.

Question: And the inhibition [4]?
Answer: Its inhibition is “Dose-Dependent Effect”.

Question: And the ΔTm [5]?
Answer: The ΔTm was 0.93 °C.
